Test system: Wistar-King male rats
Test: Serum total cholesterol and triglycerides in cholesterol/cholic acid/corn oil-loaded rats after 7 days oral administration
Format: in vivo
Details: once a day for 7 days, 4 hours after last administration, mean of 6 rats; for Serum lipid level, total cholesterol: control 210.0; for Serum lipid level, triglyceride: control 621.7
Experimental: Wistar-King male rats weighing 170 g are orally administered with 5% acacia gum suspension of the compound obtained in Example 1 or 2. Thirty minutes thereafter, a mixture of 10% cholesterol, 1% cholic acid and corn oil is orally administered at a dose of 10 ml/kg.
The above-described administration is made once a day for consecutive 7 days, and 4 hours after the last administration blood is drawn from the abdominal large artery of the rats under ether anesthesia. The blood is centrifuged at 1630×g at 4° C. for 10 min. to isolate serum. Measurements were made on serum levels of total cholesterol and triglycerides by means of serum lipid reagents, V-cholestase (Nissui, trade name for the total cholesterol) and V-Triglase (Nissui, trade name for the triglycerides). Results are shown in Table 1, in which mean values for a group of 6 animals are shown.

Row | SMILES | Serum lipid level, total cholesterol (dose 1.2 mM/kg) | Serum lipid level, triglyceride (dose 1.2 mM/kg) | Serum lipid level, total cholesterol (dose 2.4 mM/kg) | Serum lipid level, triglyceride (dose 2.4 mM/kg)
1 | CC/C=C\C/C=C\C/C=C\CCCCCCCC(=O)NCCOC(=O)c1cccnc1 [Example 1, N-(9,12,15-octadecatrienoyl)-2-aminoethyl nicotinate] | 198.9 mg/dL | 350.1 mg/dL | 146.6 mg/dL | 258.4 mg/dL
2 | CC/C=C\C/C=C\C/C=C\C/C=C\C/C=C\CCCC(=O)NCCOC(=O)c1cccnc1 [Example 2, N-(5,8,11,14,17-eicosapentaenoyl)-2-aminoethyl nicotinate] | 194.8 mg/dL | 296.4 mg/dL | 130.4 mg/dL | 202.8 mg/dL
3 | O=C(O)c1cccnc1 [Nicotinic acid, reference compound] |  |  | 195.4 mg/dL | 312.2 mg/dL
